Entries after “also recorded” stand apart in the source; their conditions may differ. Where two headings read alike, the source gives them in different places. Values belong to the molecule of their own block, whether it stands above or below them.
Legend:
[1] = test system: LSC-enriched leukemia cells (MLL-AF9); test: Leukemia coculture assay on primary MSC stroma (cobblestoning readout); format: cell-based, murine; details: for leukemia-selective activity in coculture vs normal HSPCs: primary MSC stroma
Method: Whole bone marrow were harvested from C57/B16 actin-dsRed mice (006051, Jackson Labs), subjected to red blood cell lysis (Qiagen), then granulocyte-macrophage progenitors (GMPs) were isolated by Fluorescence-activated cell sorting (FACsAria, Becton Dickinson). GMPs were spinfected twice (2500 rpm, 90 min, 37 C) in the presence of mIL3 (10 ng/ml, Peprotech), mIL6 (10 ng/ml, Peprotech), and mSCF (10 ng/ml, Peprotech) with pMSCV-MLL-AF9-Neo virus then transplanted into lethally irradiated C57/B16 recipients. After disease onset, the spleens were harvested and transplanted into sublethally irradiated secondary recipients. Subsequent transplantation of bulk spleen cells from leukemic secondary mice was repeated twice to generate leukemic GMPs from quaternary transplant leukemic mouse bone marrow.
Long bones and hips from moribund leukemic mice were harvested, cleaned, crushed and sequentially passed through 100 and 70 μM filters (Falcon). The cells were RBC lysed (Qiagen) and stained in PBS+2% FBS (Omega). Antibodies included lineage markers CD4, CD8, Gr1, Mac1, IL-7R, and Ter119 (Caltag), c-kit (17-1172-83, eBioscience), Sca-1 (11-5981-82, eBioscience), CD34 (11-0341-85, eBioscience), and CD16/32 (25-0161-82, eBioscience). Hoechst 33258 (H21491, Invitrogen) was also used, to identify live cells. Cells were sorted on a FacsAria II (Becton Dickinson).
The humerii, tibiae, ilia, femurs, and spine were isolated from actin-GFP mice (000329, Jackson Lab) crushed using a mortar and pestle, washed in phosphate-buffered saline (PBS) without magnesium and calcium (Gibco) with 0.5% fetal bovine serum (FBS) (HyClone) and filtered through a 70-μm filter. Red blood cell lysis was performed with ammonium-chloride/potassium-chloride (ACK) lysing buffer (Lonza), the cells were resuspended in α-MEM (StemCell Technologies), 20% FBS (HyClone) and 1× Pen-Strep (CellGro), plated in 25 ml in 150-cm^2 tissue-culture flasks (three per mouse), and incubated at 33° C. with 5% CO2. After 2-3 days, the medium was replaced with fresh α-MEM with 20% FBS. After 8-14 days, the cells were rinsed, split by trypsinization (CellGro), pooled, filtered through a 70 μm filter, replated at 3-4 million cells per 150-cm^2 tissue-culture flask, and grown at 33° C. with 5% CO2 for 3-4 days until nearly confluent. The cells were trypsinized, filtered, and resuspended in 0.5% FBS in PBS with biotin-conjugated anti-mouse CD105 antibody (eBioscience) for 15-30 minutes at room temperature. The CD105-labeled cells were incubated with Dynabead M-280 streptavidin-linked magnetic beads (Invitrogen) for 15-30 minutes at 4° C. with agitation and isolated using magnetic separation and rinsed once. The CD105^+ cell fraction was replated at 1-2 million cells per 150-cm^2 tissue-culture flask and incubated at 33° C. with 5% CO2 for 2-3 days.
The MSCs were trypsinized, filtered, diluted in phenol-red-free alpha-MEM with 20% FBS, and plated (30 μl for a total of 2000 cells per well) on 384-well clear-bottomed black tissue-culture treated plate (3712, Corning) pretreated with fibronectin (Millipore). Plate covers (VWR) were added, the plates were spun and at 500 with slow braking, and the cells were incubated at room temperature for 60-90 minutes before incubation at 33° C. with 5% CO2 for 3 days prior to hematopoietic cell plating. […]

[2] = test system: normal HSPCs; test: Normal HSPC coculture on primary MSC stroma
Method: The material was cleaned, crushed and sequentially passed through 100 and 70 μM filters (Falcon). […] The biotin-labeled cells were spun down, resuspended in 0.5% FBS in PBS, and incubated for 15-30 minutes at 4° C. with agitation with 1 mL of Dynabead M-280 streptavidin-linked magnetic beads per 4 mice. The bead-linked cells were depleted using magnetic separation and rinsed once. The lineage- and CD48-depleted cell fraction was labeled with streptavidin-APC-Cy7 antibody from BD Biosciences and c-kit-APC, Sca-1-FITC, CD48-Pacific Blue, and CD150 PE-Cy7 antibodies from eBioscience. DsRed-positive lineage-Sca-1+c-kit+CD48− HSCs were sorted using a FACS DiVa or FACS ARIA (BD Biosciences).
A total of 20 μL of 20 μg/mL fibronectin (Millipore) in PBS was added to each well of a 384-well clear-bottomed black tissue-culture treated plate (Corning) and incubated for 30-120 minutes at 33° C. or 37° C. […] The fibronectin solution was removed from each well using a 24-channel wand aspirator; then 30 μL of BMSC solution was added to plate 2000 BMSCs/well. […] Each plate was covered with a sterile rayon breathable membrane (VWR) and plastic lid, and then spun at 500 rpm (approximately 60× gravity) with slow braking. The plates were incubated at room temperature for 60-90 minutes before incubation at 33° C. with 5% CO2 for 3 days prior to HSC addition.
The sorted HSCs, SLAMs and progenitor cells were resuspended in phenol-red free alpha-MEM with 20% FBS and diluted to 10,000 cells/mL. A total of 20 μL of cell solution containing 200 hematopoietic cells was added to each well using a multichannel pipettor or liquid-dispensing system. Each plate was covered with a sterile rayon breathable membrane (VWR) and plastic lid, and then spun at 500 rpm (approximately 60×gravity) with slow braking. The plates were incubated at room temperature for 60-90 minutes before incubation at 33° C. with 5% CO2 overnight prior to compound or cytokine addition.
Image analysis was performed using MetaXpress software from MDC and CellProfiler software from the Broad Institute of Harvard and MIT.
Compound addition and incubation was performed as described for the LSC coculture screen above, but without a media change or readdition of the compound.
The selected set was screened in 8-point dose against both normal HSPCs with a high number of replicates (6) and LSC-enriched leukemia cells, each cocultured on primary MSCs.

[3] = test system: normal murine HSPCs; test: Triple coculture (LSCs and HSPCs on primary MSCs), normal HSPCs; details: read-out: Normal HSPC* IC50
Method: (§1) As in the original assay approach, treatment of these triple cocultures began one day after hematopoietic cell plating and was assessed 5 days later.
(§2) An in vitro therapeutic index was determined for each compound, a comparative measure of the potential for anti-LSC efficacy relative to the potential for dose-limiting toxicities to normal HSCs (myeloablation), or to normal progenitors (myelosuppression). Specifically, ratios were created using the IC50s for primary murine HSPCs in triple coculture as the numerator, and the IC50s for primary murine leukemia inhibition in triple coculture as the denominator, toward assessing the potential for HSC harm relative to LSC inhibition.

[4] = test system: normal primary human CD34+ cells; test: Alamar Blue assay for human progenitor cell toxicity; details: for IC50: read-out: Normal Progenitor* IC50
Method: Normal G-CSF mobilized CD34+ cells (AllCells, LLC, Emeryville, Calif.), normal BM CD34 cells (MSKCC, New York, N.Y.) and cord blood CD34+ cells (New York Blood Center, New York) were previously frozen and thawed out before the proliferation assay was set up in 384-well plates. Briefly, 50 μl of IMDM medium containing 20% FBS (Gemini Bio-Product, West Sacramento, Calif.), 20 ng/ml of recombinant human Kit Ligand (rhKL), 20 ng/ml of rh-Interleukin-3 (rhIL-3), 20 ng/ml of rhG-CSF, 6 units/ml of rhEPO, 10-42-mercaptoethanol, 2 mM glutamine, 50 u/ml penicillin, 50 μg/ml streptomycin, 1,000 viable CD34+ cells in the presence of various doses of Broad compounds (drug-treated group) or 0.1% DMSO (control group) were incubated at 37° C. After 6 days, 5 μl of AlamaBlue (AbD Serotec, Raleigh, N.C.) was added to each well and further incubated overnight. The fluorescence signal was then measured with GeminiXS microplate reader (Molecular Devices, Sunnyvale, Calif.). Effect of small molecules to proliferation of CD34+ cells was reported as Relative fluorescent intensity (Relative Fluorescent Intensity=Fluorescent Intensity (drug-treated)/Fluorescent Intensity (Control).
Finally, experiments were performed to examine whether BRD7116 or lovastatic acid were likely to cause myelosuppression, a type of deleterious toxicity in patients resulting from harm to normal human hematopoietic progenitor cells. This consideration is especially important as conventional therapies currently used in the clinic have myelosuppressive toxicities that are dose-limiting. To this end, a hematopoietic progenitor assay was employed to compare the effects of BRD7116 and lovastatic acid to effects given by such known myelosuppressive compounds. In this assay, normal primary human CD34^+ cord blood cells were plated with cytokines in suspension, treated with compound for 7 days, and then examined for viability relative to DMSO treated controls.

[5] = test system: MLL-AF9 LSC; test: Triple coculture (LSCs and HSPCs on primary MSCs), leukemia cells; format: cell-based, murine; details: murine LSCs in triple coculture with HSPCs on MSCs
Method: as §1, §2

[6] = Mus musculus, MLL-AF9, LSCs on primary MSC stroma, 8-point dose, read-out: Leukemia IC50
[7] = Mus musculus, read-out: Normal IC50, HSPCs on primary MSC stroma, 8-point dose
[8] = Mus musculus, MLL-AF9, statins (acid form), LSCs cocultured on primary MSC stroma, read-out: Leukemia IC50
[9] = Mus musculus, read-out: Normal IC50, statins (acid form), HSPCs cocultured on primary MSC stroma

Molecule: CC(C)c1nc(N(C)S(C)(=O)=O)nc(-c2ccc(F)cc2)c1/C=C/[C@@H](O)C[C@@H](O)CC(=O)O [Rosuvistatin]
leukemia-selective activity in coculture vs normal HSPCs [1]: selectively inhibited leukemia cobblestoning
IC50 ([1]; statins (acid form), LSCs cocultured on primary MSC stroma, read-out: Leukemia IC50): 1220 nM
IC50 ([2]; read-out: Normal IC50, statins (acid form), HSPCs cocultured on primary MSC stroma): > 20 µM

Molecule: c1cc(CN2CCCNCCNCCCNCC2)ccc1CN1CCCNCCNCCCNCC1 [AMD3100]
leukemia-selective activity in coculture vs normal HSPCs [1]: showed selectivity for LSCs over HSPCs

Molecule: COc1cc(/C=C/C(=O)N2CCC=CC2=O)cc(OC)c1OC [Piperlongumine]
IC50 ([1]; Mus musculus, MLL-AF9, read-out: Leukemia IC50): 379 nM
IC50 ([2]; Mus musculus, read-out: Normal IC50): ~20 µM

Molecule: C=C1C(=O)O[C@@H]2[C@H]3O[C@]3(C)CC/C=C(\C)CC[C@@H]12 [Parthenolide]
IC50 [1, 6]: 7500 nM
IC50 [2, 7]: > 20 µM

Molecule: CC(C)c1c(C(=O)Nc2ccccc2)c(-c2ccccc2)c(-c2ccc(F)cc2)n1CC[C@@H](O)C[C@@H](O)CC(=O)O [Atorvastatin]
IC50 [1, 8]: ≤ 1900 nM
leukemia-selective activity in coculture vs normal HSPCs [1]: selectively inhibited leukemia cobblestoning
IC50 [2, 9]: > 20 µM

Molecule: CCC(C)(C)C(=O)O[C@H]1C[C@@H](C)C=C2C=C[C@H](C)[C@H](CC[C@@H]3C[C@@H](O)CC(=O)O3)[C@H]21 [Simvastatin]
IC50 [1, 8]: ≤ 15 nM
IC50 [2, 9]: > 20 µM

Molecule: COc1cc2c(cc1O)CC[C@@H]1[C@@H]2CC[C@]2(C)[C@@H](O)CC[C@@H]12 [2-Methoxy estradiol]
IC50 [1, 6]: 77 nM
leukemia-selective activity in coculture vs normal HSPCs [1]: displayed leukemia selectivity
IC50 [2, 7]: > 20 µM

Molecule: CC(C)n1c(/C=C/C(O)CC(O)CC(=O)O)c(-c2ccc(F)cc2)c2ccccc21 (stereo not drawn) [Fluvastatin]
IC50 [1, 8]: 27.9 nM
IC50 [2, 9]: > 20 µM

Molecule: COc1cccc2c1C(=O)c1c(O)c3c(c(O)c1C2=O)C[C@@](O)(C(C)=O)C[C@@H]3O[C@H]1C[C@H](N)[C@H](O)[C@H](C)O1 [Daunorubicin]
IC50 ([3]; Mus musculus): 50 nM
IC50 ([4]; Homo sapiens, 168 h): 20 nM

Molecule: Nc1ccn([C@@H]2O[C@H](CO)[C@@H](O)[C@@H]2O)c(=O)n1 [Ara-C]
IC50 ([3]; normal murine HSPCs in triple coculture with LSCs on primary MSCs): 5000 nM
toxicity to hematopoietic progenitor cells ([4]; 7 days of exposure, viability relative to DMSO): kill progenitors; also recorded: displayed toxicity
IC50 ([4]; normal human hematopoietic progenitors, 7 days): 2500 nM
IC50 [5]: 2500 nM

Molecule: Celastrol
IC50 ([1]; LSCs on primary MSC stroma, 8-point dose, read-out: Leukemia IC50): 102 nM
IC50 ([2]; read-out: Normal IC50, HSPCs on primary MSC stroma, 8-point dose): > 20 µM

Molecule: COCc1c(C(C)C)nc(C(C)C)c(/C=C/[C@@H](O)C[C@@H](O)CC(=O)O)c1-c1ccc(F)cc1 [Cerivastatin]
IC50 [1, 8]: < 10 nM
IC50 [2, 9]: > 20 µM

Now from value to molecule, other results behind:

IC50 [1, 6]: 149 nM
Molecule: COc1cc2c(cc1OC)-c1c(C#N)c(-c3ccc(C)cc3)c(C(=O)c3cccs3)n1CC2 [BRD8404]
IC50 [2, 7]: > 20 µM

IC50 [1, 6]: 813 nM
Molecule: O=C(c1ccccc1)c1cc[n+](Cc2ccccn2)cc1 [BRD1856]
IC50 [2, 7]: > 20 µM

IC50 [1, 6]: ≤ 10 nM
Molecule: CC[n+]1c(/C=C2/C=C(C)CC(C)C2)sc2ccccc21 (stereo not drawn) [BRD1319]
IC50 [2, 7]: > 20 µM

IC50 [1, 6]: 2140 nM
Molecule: C[C@@H]1CN([C@@H](C)CO)C(=O)c2cccc(NC(=O)Nc3ccccc3)c2O[C@@H]1CN(C)Cc1ccc(C(=O)Nc2ccccc2N)cc1 [BRD6708]
IC50 [2, 7]: > 20 µM

IC50 [1, 6]: 1420 nM
Molecule: CCOc1ccccc1NC(=O)C(C)Oc1ccc(OC)cc1 (stereo not drawn) [BRD1686]
IC50 [2, 7]: > 20 µM

IC50 [1, 6]: 699 nM
Molecule: C[C@@H]1CN([C@@H](C)CO)C(=O)c2cccc(NC(=O)C3CCCCC3)c2O[C@@H]1CN(C)Cc1ccc(C(=O)Nc2ccccc2N)cc1 [BRD9608]
IC50 [2, 7]: ~20 µM

IC50 [1, 6]: ≤ 10 nM
Molecule: CC[n+]1c(/C=C2\C=C(C)CC(C)(C)C2)oc2ccccc21 [BRD0638]
IC50 [2, 7]: > 20 µM

Source: patent US20130338092A1, “COMPOUNDS AND METHODS FOR TARGETING LEUKEMIC STEM CELLS” (The Broad Institute, Inc., priority 2011, published 2013)
